Test results as given in ChEMBL document CHEMBL1129522, “Inhibitors of acyl-CoA:cholesterol O-acyltransferase. 17. Structure-activity relationships of several series of compounds derived from N-chlorosulfonyl isocyanate” (J Med Chem, 1996).
Several values for one entry are separate records, joined by “and”; a condition that tells them apart may be missing. Equal entries are not always repeated.

Assays:
[1] = target: T1, Sterol O-acyltransferase 1 (Rattus norvegicus, UniProt O70536); assay: In vitro inhibitory activity against acyl coenzyme A:cholesterol acyltransferase 1 in microsomes of rat liver
T1 sequence (O70536 whole entry): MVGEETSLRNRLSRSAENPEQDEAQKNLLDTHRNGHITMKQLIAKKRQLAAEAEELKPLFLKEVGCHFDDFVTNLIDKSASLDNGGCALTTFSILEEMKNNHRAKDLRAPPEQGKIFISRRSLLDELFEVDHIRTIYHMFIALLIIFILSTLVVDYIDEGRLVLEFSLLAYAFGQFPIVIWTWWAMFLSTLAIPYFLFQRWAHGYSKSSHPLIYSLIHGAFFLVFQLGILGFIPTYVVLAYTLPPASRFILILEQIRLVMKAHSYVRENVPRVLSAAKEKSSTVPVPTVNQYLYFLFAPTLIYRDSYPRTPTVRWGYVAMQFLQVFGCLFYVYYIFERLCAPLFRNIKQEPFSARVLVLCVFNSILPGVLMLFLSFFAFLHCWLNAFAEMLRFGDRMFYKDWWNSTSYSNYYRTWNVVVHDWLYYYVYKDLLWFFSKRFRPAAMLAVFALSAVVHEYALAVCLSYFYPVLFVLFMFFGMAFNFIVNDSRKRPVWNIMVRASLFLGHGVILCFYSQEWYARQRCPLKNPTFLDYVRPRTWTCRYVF

Rattus norvegicus = assay: Acute in vivo activity measured by total plasma cholesterol concentration levels (TC) at 30 mg/kg dose; format: functional
[2] = target: T2, Sterol O-acyltransferase 1 (Rattus norvegicus) (UniProt O70536); assay: Acute in vivo activity was measured by the total plasma cholesterol concentration levels(TC) at dose 3 mg/kg; format: functional, organism-based; design: dose 3 mg/kg
T2 sequence (whole entry): T1 sequence (O70536 whole entry)

[3] = target: T2, Sterol O-acyltransferase 1 (Rattus norvegicus); assay: Chronic in vivo activity was measured by the concentration of high density lipoproteins (HDL) in cholesterol fed rats; format: functional, organism-based
[4] = target: T2, Sterol O-acyltransferase 1 (Rattus norvegicus); assay: Chronic in vivo activity was measured by the total cholesterol concentration levels in cholesterol fed rats; format: functional, organism-based

Row | Structure (SMILES) | IC50 [1] [µM] | Delta TC (Rattus norvegicus) [%] | Delta TC [2] | Delta HDL [3] | Delta TC [4]
1 | CCCCCCOS(=O)(=O)NC(=O)Oc1c(C(C)(C)C)cc(C)cc1C(C)(C)C | 95 | -56 | -14% | – | –
2 | CCCCCCCCCCCCOC(=O)NS(=O)(=O)Oc1c(C(C)C)cccc1C(C)C | 13 | -62 | 1% | – | –
3 | CC(C)CCN(CCC(C)C)S(=O)(=O)NC(=O)Nc1c(C(C)C)cccc1C(C)C | 0.42 | – | -66% | 133% | -68%
4 | CC(C)c1cccc(C(C)C)c1OC(=O)N(C)S(=O)(=O)Oc1c(C(C)C)cccc1C(C)C | 50 | -64 | -18% | – | –
5 | CC(C)c1cccc(C(C)C)c1OS(=O)(=O)NC(=O)Oc1c(C(C)(C)C)cccc1C(C)(C)C | 12 | -70 | -50% | 25% | -64%
6 | CC(C)c1cc(C(C)(C)C)cc(C(C)C)c1OC(=O)NS(=O)(=O)Oc1c(C(C)C)cccc1C(C)C | 8.8 | -58 | -55% | 177% | -72%
7 | CCCCCCN(CCCCCC)S(=O)(=O)NC(=O)Nc1c(C(C)C)cccc1C(C)C | 0.51 | – | -63% | 207% | -69%
8 | CC(C)c1cccc(C(C)C)c1OC(=O)NS(=O)(=O)N(c1ccccc1)c1ccccc1 | 58 | – | -46% | 320% | -37%
9 | CCCCN(CCCC)S(=O)(=O)NC(=O)Oc1c(C(C)C)cccc1C(C)C | – | – | -64% and -47% | 109% and 113% | -69% and -72%
10 | CC(C)c1cccc(C(C)C)c1NC(=O)NS(=O)(=O)N(CC1CCCO1)CC1CCCO1 (stereo unspecified) | 1.7 | – | -45% | 123% | -56%
11 | CCCCCCCCN(C)S(=O)(=O)NC(=O)Oc1c(C(C)C)cccc1C(C)C | 22 | – | -57% | 88% | -64%
12 | CCCCCCCCN(C)S(=O)(=O)NC(=O)Nc1c(C(C)C)cccc1C(C)C | 3.8 | – | -57% | 123% | -64%
13 | CC(C)c1cccc(C(C)C)c1OC(=O)NS(=O)(=O)Oc1c(C(C)C)cccc1C(C)C | – | – | -59% and -54% | 233% and 345% | -64% and -68%
14 | CC(C)CN(CC(C)C)S(=O)(=O)NC(=O)Nc1c(C(C)C)cccc1C(C)C | 0.42 | – | -61% | 122% | -62%
15 | COc1cc(C(C)(C)C)c(OC(=O)NS(=O)(=O)Oc2c(C(C)C)cccc2C(C)C)c(C(C)(C)C)c1 | – | – | -42% and -58% | – | -62% and -76%
16 | CC(C)c1cccc(C(C)C)c1OS(=O)(=O)NC(=O)OC1[C@@H](C(C)C)CCC[C@H]1C(C)C (stereo partly specified) | 3.6 | -70 | -29% | – | –
17 | CCCCCCN(CCCCCC)S(=O)(=O)NC(=O)Oc1c(C(C)C)cccc1C(C)C | 4.2 | – | -74% | 144% | -75%
18 | CC(C)c1cccc(C(C)C)c1OC(=O)NS(=O)(=O)N(C(C)C)C1CCCCC1 | 5.1 | – | -49% | 188% | -71%
19 | CC(C)c1cccc(C(C)C)c1NC(=O)NS(=O)(=O)N(c1ccccc1)c1ccccc1 | 16 | – | -27% | 170% | -36%
20 | COc1cc(C(C)(C)C)c(OC(=O)NS(=O)(=O)Nc2c(C(C)C)cccc2C(C)C)c(C(C)(C)C)c1 | 15 | – | -29% | 86% | -47%

Row | Structure (SMILES) | IC50 [1] [µM] | Delta TC (Rattus norvegicus) [%] | Delta TC [2] | Delta HDL [3] | Delta TC [4]
21 | CCCCCCCCCCCCCCN(C)S(=O)(=O)NC(=O)Nc1c(C(C)C)cccc1C(C)C | 0.33 | – | -65% | 19% | -51%
22 | CCCCCCOS(=O)(=O)NC(=O)Oc1c(C(C)C)cccc1C(C)C | 40 | -52 | -18% | – | –
23 | CCCCCCCCCCCCCCCCCCOS(=O)(=O)NC(=O)Nc1c(C(C)C)cccc1C(C)C | 14 | – | -5% | 30% | -38%
24 | CC(C)c1cccc(C(C)C)c1NC(=O)NS(=O)(=O)N(C1CCCCC1)C1CCCCC1 | 0.23 | – | -60% | 92% | -35%
25 | CC(C)c1cccc(C(C)C)c1OC(=O)NS(=O)(=O)N(C(C)C)C(C)C | 15 | – | -65% | 82% | -59%
26 | CCCCCCCCCCCCOS(=O)(=O)NC(=O)Nc1c(C(C)C)cccc1C(C)C | – | – | -34% and -53% | – | -55% and -52%
27 | CC(C)c1cccc(C(C)C)c1NC(=O)NS(=O)(=O)N(C(C)C)C1CCCCC1 | 0.36 | – | -60% | 94% | -63%
28 | CCCCCCC(C)OS(=O)(=O)NC(=O)Nc1c(C(C)C)cccc1C(C)C (stereo unspecified) | 35 | -51 | 10% | – | –
29 | CCCCCCCCN(CCCCCCCC)S(=O)(=O)NC(=O)Oc1c(C(C)C)cccc1C(C)C | 58 | – | -67% | 156% | -80%
30 | CCCCCCCCCCCCCCCCOS(=O)(=O)NC(=O)Oc1c(C(C)C)cccc1C(C)C | 10.3 | -60 | -42% | – | –
31 | CCC(C)N(C(C)CC)S(=O)(=O)NC(=O)Nc1c(C(C)C)cccc1C(C)C (stereo unspecified) | 0.1 | – | -65% | 86% | -62%
32 | CC(C)c1cccc(C(C)C)c1OC(=O)NS(=O)(=O)N(Cc1ccccc1)C(C)C | 12 | – | -59% | 114% | -69%
33 | CC(C)c1cc(F)cc(C(C)C)c1OC(=O)NS(=O)(=O)Oc1c(C(C)C)cccc1C(C)C | > 50 | -72 | – | 143% | -52%
34 | Cc1cc(C(C)(C)C)c(OC(=O)NS(=O)(=O)Oc2ccccc2)c(C(C)(C)C)c1 | 90 | -65 | -15% | – | –
35 | CC(C)c1cccc(C(C)C)c1OS(=O)(=O)NC(=O)Oc1c(-c2ccccc2)cccc1-c1ccccc1 | 12 | -46 | – | 21% | -38%
36 | CC(C)c1cccc(C(C)C)c1OC(=O)NS(=O)(=O)Oc1c(C(C)(C)C)cccc1C(C)(C)C | 50 | -55 | -46% | – | –
37 | CCCCCN(CCCCC)S(=O)(=O)NC(=O)Nc1c(C(C)C)cccc1C(C)C | 0.42 | – | -68% | 193% | -67%
38 | CC(C)c1cccc(C(C)C)c1NC(=O)NS(=O)(=O)N(C)CCc1ccccc1 | 1.7 | – | -38% | 43% | -45%
39 | CCCCCN(CCCCC)S(=O)(=O)NC(=O)Oc1c(C(C)C)cccc1C(C)C | 1.3 | – | -66% | 166% | -73%
40 | Cc1cccc(C)c1OS(=O)(=O)NC(=O)Oc1c(C(C)C)cccc1C(C)C | > 50 | -58 | -37% | – | –
